Laboratory results from US8536157B2, “Non-steroidal compounds” (The University of Melbourne, priority 2007, dated 2013).

Legend:
[1] = target: proteins in rat lung membranes; assay: Competitive binding assay with [3H]-CP2117 on rat lung membranes (RLM); conditions: given as Log IC50 (negative values); displacement of 10 nM [3H]-CP2117, overnight at 4° C.; ND- not detected
[2] = test system: PGE2 release in J774 macrophages; assay: PGE2 release from LPS/IFNγ-stimulated J774 macrophages (radioimmunoassay); assay type: cell-based, murine; conditions: 30 min pre-treatment, 24 hour incubation; for activity at 1 µM / activity at 10 µM: Mus musculus, J774, 24 h; for activity at 1 µM: read-out: Effects on PGE2 release in J774 macrophages at 1 μM as a % of LPS/IFNγ control, mean; for activity at 10 µM: read-out: Effects on PGE2 release in J774 macrophages at l0 μM as a % of LPS/IFNγ control, mean

Row | SMILES | Log IC50 RLM binding [1] | activity at 10 µM ([2]; l0 μM) [%] | also measured
1 | COc1ccc(/C(C)=N/OCc2ccc([N+](=O)[O-])cc2)cc1F [CP9123, 3′-Fluoro-4′-methoxyacetophenone-O-4-nitrobenzyloxime] |  |  | melting point: 67 to 68 °C
2 | COc1ccc(/C(C)=N/OCc2cccc(F)c2)cc1F [CP9125, 3′-Fluoro-4′-methoxyacetophenone-O-3-fluorobenzyloxime] | −5.5 |  | melting point: 67 °C
3 | COc1ccc(/C(C)=N/OCc2ccc(F)c(F)c2)cc1F [CP9126, 3′-Fluoro-4′-methoxyacetophenone-O-3,4-difluorobenzyloxime] |  |  | melting point: 62 to 63 °C
4 | C/C(=N\OCc1ccc2nonc2c1)c1ccc(O)c(F)c1 [CP9128, 3′-Fluoro-4′-hydroxyacetophenone-O-[(benzo[c][1,2,5]oxadiazol-5-yl)methyl]oxime] | −5.9 | 65 | activity at 1 µM [2]: 62%
5 | COc1cc(/C(C)=N/OCc2ccc3nonc3c2)ccc1F [CP9129, 4′-Fluoro-3′-methoxyacetophenone-O-[(benzo[c][1,2,5]oxadiazol-5-yl)methyl]oxime] |  |  | melting point: 65 °C
6 | C/C(=N\OCc1ccc([N+](=O)[O-])cc1)c1ccc(O)c(F)c1 [CP9132, 3′-Fluoro-4′-hydroxyacetophenone-O-4-nitrobenzyloxime] |  |  | melting point: 93 to 94 °C
7 | C/C(=N\OCc1ccc2nonc2c1)c1ccc(F)c(O)c1 [CP9135, 4′-Fluoro-3′-hydroxyacetophenone-O—[(benzo[c][1,2,5]oxadiazol-5-yl)methyl]oxime] | −5.28 | 90 | activity at 1 µM [2]: 66%
8 | C/C(=N\OCc1ccc([N+](=O)[O-])cc1)c1ccccc1 [CP30252, (E)-Acetophenone O-4-Nitrobenzyl Oxime] |  |  | melting point: 91.3 to 92.3 °C
9 | COc1ccc(/C(C)=N/OCc2ccc([N+](=O)[O-])cc2)cc1OC(C)C [CP30254, (E)-3′-Isopropoxy-4′-methoxyacetophenone O-4-Nitrobenzyl Oxime] |  |  | melting point: 44.5 to 46.1 °C
10 | C/C(=N\OCc1ccc([N+](=O)[O-])cc1)c1ccc2c(c1)OCO2 [CP30255, (E)-3′,4′-Methylenedioxyacetophenone O-4-Nitrobenzyl Oxime] |  |  | melting point: 158.7 to 160.5 °C
11 | COc1ccc(/C(C)=N/OCc2ccc([N+](=O)[O-])cc2)cc1OC [CP30257, (E)-3′,4′-Dimethoxyacetophenone O-4-Nitrobenzyl Oxime] |  |  | melting point: 118.4 to 121 °C
12 | C/C(=N\OCc1ccc([N+](=O)[O-])cc1)c1cccc(O)c1 [CP30260, (E)-3′-Hydroxyacetophenone O-4-Nitrobenzyl Oxime] |  |  | melting point: 123.6 to 125.3 °C
13 | COc1ccc(/C(C)=N/OCc2cccc(F)c2)cc1O [CP30262, (E)-3′-Hydroxy-4′-methoxyacetophenone O-3-Fluorobenzyl Oxime] | −6.88 |  | 
14 | COc1ccc(/C(C)=N/OCc2cccc(C)c2)cc1O [CP30264, (E)-3′-Hydroxy-4′-methoxyacetophenone O-3-Methylbenzyl Oxime] | −6.96 | 74 | activity at 1 µM [2]: 77%
15 | COc1ccc(/C(C)=N/OCc2ccc(F)cc2)cc1O [CP30266, (E)-3′-Hydroxy-4′-methoxyacetophenone O-4-Fluorobenzyl Oxime] | −6.9 |  | 
16 | COc1ccc(/C(C)=N/OCc2ccccc2F)cc1O [CP30280, (E)-3′-Hydroxy-4′-methoxyacetophenone O-2-Fluorobenzyl Oxime] | −6.5 |  | 
17 | COc1ccc(/C(C)=N/OCc2ccc(F)c(F)c2)cc1O [CP30281, (E)-3′-Hydroxy-4′-methoxyacetophenone O-3,4-Difluorobenzyl Oxime] | −6.16 |  | 
18 | COc1ccc(/C(C)=N/OCc2cccc(OC(F)(F)F)c2)cc1O [CP30282, (E)-3′-Hydroxy-4′-methoxyacetophenone O-3-Trifluoromethoxybenzyl Oxime] | −6.41 |  | 
19 | COc1cc(-c2ccccc2)c(/C(C)=N/OCc2ccc([N+](=O)[O-])cc2)cc1O [CP30329, (E)-5′-Hydroxy-4′-methoxy-2′-phenylacetophenone O-4-Nitrobenzyl Oxime] | −6.2 | 55 | 

Row | SMILES | Log IC50 RLM binding [1] | activity at 10 µM ([2]; l0 μM) [%] | also measured
20 | COc1cc(-c2ccc(OC)c(OC)c2)c(/C(C)=N/OCc2ccc([N+](=O)[O-])cc2)cc1O [CP30331, (E)-5′-Hydroxy-4′-methoxy-2′-(3,4-dimethoxyphenyl)acetophenone O-4-Nitrobenzyl Oxime] | −6.14 | 28 | 
21 | COc1ccc(-c2cc(OC)c(O)cc2/C(C)=N/OCc2ccc([N+](=O)[O-])cc2)cc1 [CP30338, (E)-5′-Hydroxy-4′-methoxy-2′-(4-methoxyphenyl)acetophenone O-4-Nitrobenzyl Oxime] | −6.88 |  | 
22 | COc1cc(-c2cccc(NC(=O)OC(C)(C)C)c2)c(/C(C)=N/OCc2ccc([N+](=O)[O-])cc2)cc1O [CP30339, (E)-2′-(3-tert-Butoxycarbonylaminophenyl)-5′-hydroxy-4′-methoxyacetophenone O-4-Nitrobenzyl Oxime] | −6.64 | 36 | 
23 | COc1cc(-c2ccc(Cl)cc2)c(/C(C)=N/OCc2ccc([N+](=O)[O-])cc2)cc1O [CP30340, (E)-2′-(4-Chlorophenyl)-5′-hydroxy-4′-methoxyacetophenone O-4-Nitrobenzyl Oxime] | −6.26 | 51 | 
24 | COc1cc(-c2ccc(OC(F)(F)F)cc2)c(/C(C)=N/OCc2ccc([N+](=O)[O-])cc2)cc1O [CP30343, (E)-2′-(4-Trifluoromethoxyphenyl)-5′-hydroxy-4′-methoxyacetophenone O-4-Nitrobenzyl Oxime] | −6.23 | 51 | activity at 1 µM [2]: 65%
25 | COc1cc(-c2ccc(F)cc2)c(/C(C)=N/OCc2ccc([N+](=O)[O-])cc2)cc1O [CP30344, (E)-2′-(4-Fluorophenyl)-5′-hydroxy-4′-methoxyacetophenone O-4-Nitrobenzyl Oxime] | −5.43 | 94 | activity at 1 µM [2]: 111%
26 | COc1ccc(C(=NOCc2ccc([N+](=O)[O-])cc2)[C@H]2CC[C@H](CCO)CC2)cc1O [CP30347, trans-(3-Hydroxy-4-methoxyphenyl)-4-(2-hydroxyethyl)cyclohexylmethanone O-4-Nitrobenzyl Oxime] | −5.75 | 68 | activity at 1 µM [2]: 102%
27 | COc1ccc(C(=NOCc2ccc([N+](=O)[O-])cc2)[C@H]2CC[C@@H](CCO)CC2)cc1O [CP30348-1, cis-(3-Hydroxy-4-methoxyphenyl)-4-(2-hydroxyethyl)cyclohexylmethanone O-4-Nitrobenzyl Oxime] | −6.02 | 91 | Effects on PGE2 release in J774 macrophages at 1 μM as a % of LPS/IFNγ control, mean [2]: 124 % of LPS/IFNγ control
28 | COc1ccc(C(=NOCc2ccc([N+](=O)[O-])cc2)[C@H]2CC[C@@H](CCO)CC2)cc1O [CP30348-2, cis-(3-Hydroxy-4-methoxyphenyl)-4-(2-hydroxyethyl)cyclohexylmethanone O-4-Nitrobenzyl Oxime] | −5.6 |  | Effects on PGE2 release in J774 macrophages at 1 μM as a % of LPS/IFNγ control, mean [2]: 85 % of LPS/IFNγ control; Effects on PGE2 release in J774 macrophages at l0 μM as a % of LPS/IFNγ control, mean ([2]; l0 μM): 111 % of LPS/IFNγ control
29 | COc1cc(-c2ccc(N)cc2)c(/C(C)=N/OCc2ccc([N+](=O)[O-])cc2)cc1O [CP30381, (E)-2′-(4-Aminophenyl)-5′-hydroxy-4′-methoxyacetophenone O-4-Nitrobenzyl Oxime] |  |  | activity at 1 µM [2]: 62%
30 | COc1cc(C2CCCCC2)c(C(C)=NOCc2ccc([N+](=O)[O-])cc2)cc1O [CP30424, 2′-Cyclohexyl-5′-hydroxy-4′-methoxyacetophenone O-4-Nitrobenzyl Oxime] | −6.18 |  | activity at 1 µM [2]: 83%
31 | COc1cc([C@H]2CC[C@@](C)(CO)CC2)c(C(C)=NOCc2ccc3nonc3c2)cc1O [CP30453, 2′-(4-Hydroxymethyl-4-methyl)cyclohexyl-5′-hydroxy-4′-methoxyacetophenone O-(benzofurazan-5-yl)methyl Oxime] | −5.81 |  | 
32 | COc1cc(Br)c(/C(C)=N/OCc2ccc([N+](=O)[O-])cc2)cc1O [CP302108-Major, (E)-2′-Bromo-5′-hydroxy-4′-methoxyacetophenone O-4-Nitrobenzyl Oxime] |  |  | melting point: 136.8 to 138.4 °C
33 | COc1cc2c(cc1O)/C(=N/OCc1ccc3nonc3c1)CCC2 [Compound 2-TB-146, (E)-7-Hydroxy-6-methoxy-3,4-dihydronaphthalen-1(2H)-one O-benzo[c][1,2,5]oxadiazol-5-ylmethyl oxime] | −6.91 |  | 
34 | COc1cc2c(cc1O)/C(=N/OCc1ccc3nonc3c1)CC2 [Compound 2-TB-147, (E)-6-Hydroxy-5-methoxy-2,3-dihydro-1H-inden-1-one O-benzo[c][1,2,5]oxadiazol-5-ylmethyl oxime] | −6.43 |  | 
35 | COc1cc2c(cc1OC)/C(=N/OCc1ccc([N+](=O)[O-])cc1)CC2 [TB54, (E)-5,6-Dimethoxy-2,3-dihydroinden-1-one O-4-Nitrobenzyl Oxime] |  | 78 | activity at 1 µM [2]: 95%
36 | COc1cc2c(cc1O)/C(=N/OCc1ccc([N+](=O)[O-])cc1)CCC2 [TB76, (E)-7-Hydroxy-6-methoxy-3,4-dihydronaphthalen-1(2H)-one O-4-Nitrobenzyl Oxime] | −6.48 |  | 
37 | COc1cc2c(cc1O)/C(=N/OCc1ccc([N+](=O)[O-])cc1)CC2 [TB81, (E)-6-Hydroxy-5-methoxy-2,3-dihydroinden-1-one O-4-Nitrobenzyl Oxime] | −6.16 |  | 
